Reference: publication PMC2866738 (Biochemistry, 2010)

Tested on: IN double-mutant G140S-Q148H (SH)
Type: biochemical

Cc1nnc(C(=O)NC(C)(C)c2nc(C(=O)NCc3ccc(F)cc3)c(O)c(=O)n2C)o1 [RAL, Raltegravir]
increase in IC50 for 3′-P compared to WT (resistance factor): more than 62 fold
